In brackets after ≈: the same amount, converted by molar mass.

The text below walks through data of ChEMBL document CHEMBL3421607, “Design, synthesis and antibacterial activity of cinnamaldehyde derivatives as inhibitors of the bacterial cell division protein FtsZ” (Eur J Med Chem, 2015).

Holding throughout (type): functional
The test system of assay [1] is Pseudomonas aeruginosa. Briefly: microbe, parasite or virus in culture. As to conditions: ATCC 27853, 24 h.
Assay [2] deals with Streptococcus pyogenes. The assay is described as follows: Antibacterial activity against penicillin-resistant Streptococcus pyogenes clinical isolates after 24 hrs by broth microdilution method. A general note: In broth dilution the organism is exposed to a series of concentrations in liquid medium.
Assay [3] has as its system Bacillus subtilis. Briefly: microbe, parasite or virus in culture. As to conditions: ATCC 9372, 5 h.
Description: Inhibition of cell division in penicillin-susceptible Bacillus subtilis ATCC 9372 assessed as filamentation after 5 hrs by phase contrast microscopy
For assay [4], the system named is Staphylococcus aureus. Briefly: Antibacterial activity against penicillin-resistant Staphylococcus aureus clinical isolates after 24 hrs by broth microdilution method.
Assay [5] has as its system Bacillus subtilis. The assay is described as follows: microbe, parasite or virus in culture. As to conditions: ATCC 9372, 24 h.
Description: Antibacterial activity against penicillin-susceptible Bacillus subtilis ATCC 9372 after 24 hrs by broth microdilution method
For assay [6], the system named is Pseudomonas aeruginosa. The assay is described as follows: microbe, parasite or virus in culture. As to conditions: ATCC 27853, 5 h.
Description: Inhibition of cell division in penicillin-susceptible Pseudomonas aeruginosa ATCC 27853 assessed as filamentation after 5 hrs by phase contrast microscopy
In assay [7] the test system is Staphylococcus aureus. The assay is described as follows: microbe, parasite or virus in culture. Conditions: ATCC 25923, 5 h.
Description: Inhibition of cell division in penicillin-susceptible Staphylococcus aureus ATCC 25923 assessed as ballooning after 5 hrs by phase contrast microscopy
The subject of assay [8] is Staphylococcus aureus. The assay is described as follows: microbe, parasite or virus in culture. Conditions: ATCC 25923, 24 h.
Description: Antibacterial activity against penicillin-susceptible Staphylococcus aureus ATCC 25923 after 24 hrs by broth microdilution method
Assay [9] relates to Staphylococcus aureus. The assay is described as follows: microbe, parasite or virus in culture. As to conditions: ATCC 29213, 24 h.
Description: Antibacterial activity against methicillin-resistant Staphylococcus aureus ATCC 29213 after 24 hrs by broth microdilution method
Assay [10] concerns Escherichia coli. Briefly: microbe, parasite or virus in culture. As to conditions: ATCC 25922, 5 h.
Description: Inhibition of cell division in penicillin-susceptible Escherichia coli ATCC 25922 assessed as filamentation after 5 hrs by phase contrast microscopy
The test system of assay [11] is Streptococcus pyogenes. Briefly: Antibacterial activity against penicillin-susceptible Streptococcus pyogenes clinical isolates after 24 hrs by broth microdilution method.
The subject of assay [12] is Staphylococcus epidermidis. The assay is described as follows: Antibacterial activity against penicillin-resistant Staphylococcus epidermidis clinical isolates after 24 hrs by broth microdilution method.
In assay [13] the test system is Escherichia coli. The assay is described as follows: microbe, parasite or virus in culture. Conditions: ATCC 25922, 24 h.
Description: Antibacterial activity against penicillin-susceptible Escherichia coli ATCC 25922 after 24 hrs by broth microdilution method

For `O=C(O)c1cn(C2CC2)c2cc(N3CCNCC3)c(F)cc2c1=O` [CIPROFLOXACIN], the MIC with Pseudomonas aeruginosa [1] is 4 µg/mL (≈ 12.1 µM); in the assay with Streptococcus pyogenes [2], > 128 µg/mL; against Bacillus subtilis [3], > 128 µg/mL; with Staphylococcus aureus [4] it was 8 µg/mL (≈ 24.1 µM); with Bacillus subtilis [5], 8 µg/mL (≈ 24.1 µM); against Pseudomonas aeruginosa [6], > 128 µg/mL. The MIC in the assay with Staphylococcus aureus [7] was > 128 µg/mL; against Staphylococcus aureus [8] it was 8 µg/mL (≈ 24.1 µM); against Staphylococcus aureus [9], 4 µg/mL (≈ 12.1 µM); in the assay with Escherichia coli [10], > 128 µg/mL; against Streptococcus pyogenes [11], 8 µg/mL (≈ 24.1 µM); in assay [12], > 128 µg/mL.

Take `CC(C)NC(=O)/C=C/c1ccc(Cl)cc1Cl` [3-(2,4-DICHLOROPHENYL)-N-ISOPROPYLACRYLAMIDE]: the MIC is 128 µg/mL (≈ 496 µM) in the assay with Pseudomonas aeruginosa [1]; 128 µg/mL (≈ 496 µM) with Escherichia coli [13]; > 128 µg/mL in the assay with Streptococcus pyogenes [2]; 32 µg/mL (≈ 124 µM) in the assay on Bacillus subtilis [3]; > 128 µg/mL with Staphylococcus aureus [4]; > 128 µg/mL in the assay on Bacillus subtilis [5]. Further, the MIC against Pseudomonas aeruginosa [6] is > 128 µg/mL; against Staphylococcus aureus [7] it was 32 µg/mL (≈ 124 µM); with Staphylococcus aureus [8], > 128 µg/mL; in the assay on Staphylococcus aureus [9], > 128 µg/mL; against Escherichia coli [10], > 128 µg/mL; against Streptococcus pyogenes [11] it was 64 µg/mL (≈ 248 µM). For the same compound, the MIC in assay [12] was > 128 µg/mL.

As to `CCCNC(=O)/C=C/c1ccc(Cl)cc1Cl` [3-(2,4-DICHLOROPHENYL)-N-PROPYLACRYLAMIDE], the MIC in the assay on Pseudomonas aeruginosa [1] is 128 µg/mL (≈ 496 µM); in the assay with Escherichia coli [13], 128 µg/mL (≈ 496 µM); against Streptococcus pyogenes [2], > 128 µg/mL; against Bacillus subtilis [3], 32 µg/mL (≈ 124 µM); against Staphylococcus aureus [4], > 128 µg/mL; in the assay on Bacillus subtilis [5] it was > 128 µg/mL. The MIC is > 128 µg/mL in the assay with Pseudomonas aeruginosa [6]; 64 µg/mL (≈ 248 µM) with Staphylococcus aureus [7]; > 128 µg/mL in the assay with Staphylococcus aureus [8]; > 128 µg/mL in the assay with Staphylococcus aureus [9]; > 128 µg/mL in the assay on Escherichia coli [10]; 128 µg/mL (≈ 496 µM) against Streptococcus pyogenes [11]. Besides, the MIC in assay [12] is > 128 µg/mL.

As for `COc1ccc(NC(=O)/C=C/c2ccc(Cl)cc2Cl)cc1`, the MIC with Pseudomonas aeruginosa [1] is > 128 µg/mL; with Escherichia coli [13] it was > 128 µg/mL; in the assay on Streptococcus pyogenes [2], 128 µg/mL (≈ 397 µM); against Bacillus subtilis [3], > 128 µg/mL; in the assay on Staphylococcus aureus [4], > 128 µg/mL; with Bacillus subtilis [5] it was > 128 µg/mL. The MIC in the assay with Pseudomonas aeruginosa [6] is > 128 µg/mL; in the assay on Staphylococcus aureus [7], > 128 µg/mL; in the assay with Staphylococcus aureus [8], > 128 µg/mL; against Staphylococcus aureus [9], > 128 µg/mL; against Escherichia coli [10] it was > 128 µg/mL; with Streptococcus pyogenes [11] it was 128 µg/mL (≈ 397 µM). Besides, in assay [12], the MIC was > 128 µg/mL.

Regarding `CCCCNC(=O)/C=C/c1ccc(Cl)cc1Cl` [N-BUTYL-3-(2,4-DICHLOROPHENYL)ACRYLAMIDE], the MIC in the assay on Pseudomonas aeruginosa [1] was 128 µg/mL (≈ 470 µM); with Escherichia coli [13], > 128 µg/mL; against Streptococcus pyogenes [2] it was 128 µg/mL (≈ 470 µM); in the assay on Bacillus subtilis [3], > 128 µg/mL; in the assay with Staphylococcus aureus [4], > 128 µg/mL; against Bacillus subtilis [5], > 128 µg/mL. Also, the MIC was > 128 µg/mL in the assay with Pseudomonas aeruginosa [6]; > 128 µg/mL in the assay with Staphylococcus aureus [7]; > 128 µg/mL with Staphylococcus aureus [8]; > 128 µg/mL against Staphylococcus aureus [9]; > 128 µg/mL in the assay with Escherichia coli [10]; 64 µg/mL (≈ 235 µM) with Streptococcus pyogenes [11]. Moreover, the MIC in assay [12] was > 128 µg/mL.

For the compound `CCN(CC)C(=O)/C=C/c1ccc(Cl)cc1Cl`, the MIC is 128 µg/mL (≈ 470 µM) against Pseudomonas aeruginosa [1]; > 128 µg/mL in the assay with Escherichia coli [13]; 128 µg/mL (≈ 470 µM) against Streptococcus pyogenes [2]; > 128 µg/mL against Bacillus subtilis [3]; > 128 µg/mL in the assay with Staphylococcus aureus [4]; > 128 µg/mL against Bacillus subtilis [5]. Further, the MIC is > 128 µg/mL against Pseudomonas aeruginosa [6]; 128 µg/mL (≈ 470 µM) in the assay on Staphylococcus aureus [7]; > 128 µg/mL with Staphylococcus aureus [8]; 128 µg/mL (≈ 470 µM) in the assay on Staphylococcus aureus [9]; > 128 µg/mL against Escherichia coli [10]; 128 µg/mL (≈ 470 µM) in the assay on Streptococcus pyogenes [11]. Also, the MIC in assay [12] was determined as 32 µg/mL (≈ 118 µM).

For the compound `COc1ccccc1/C=C/C(=O)n1c(C)nc2ccccc21`, the MIC with Pseudomonas aeruginosa [1] was 128 µg/mL (≈ 438 µM); in the assay on Escherichia coli [13], 128 µg/mL (≈ 438 µM); in the assay with Streptococcus pyogenes [2], > 128 µg/mL; against Bacillus subtilis [3], > 128 µg/mL; with Staphylococcus aureus [4] it was 64 µg/mL (≈ 219 µM); in the assay on Bacillus subtilis [5], 128 µg/mL (≈ 438 µM). The MIC is 128 µg/mL (≈ 438 µM) in the assay with Pseudomonas aeruginosa [6]; > 128 µg/mL with Staphylococcus aureus [7]; 64 µg/mL (≈ 219 µM) with Staphylococcus aureus [8]; 128 µg/mL (≈ 438 µM) against Staphylococcus aureus [9]; 128 µg/mL (≈ 438 µM) in the assay on Escherichia coli [10]; 128 µg/mL (≈ 438 µM) in the assay with Streptococcus pyogenes [11]. In [12], this compound showed an MIC of 16 µg/mL (≈ 54.7 µM).
